The results in this text go back to EPA's ToxRefDB 2.

A value given as a limit tells only on which side of the number the result lay.

The subject of series [1] is rat. The note with it: Carcinogenicity, fischer, Oral, Feed, dose end: 105 week, group: systemic.
Series [2] has as its system rat. The note with it: Subchronic oral toxicity in rodents, Fischer, Feed, dose end: 13 week, group: systemic.
In series [3] the test system is mouse. The note with it: Multigenerational reproductive toxicity study, b6c3f1, Oral, Feed, dose end: 2 generation.
The subject of series [4] is mouse. The note with it: Subchronic oral toxicity in rodents, b6c3f1, Feed, dose end: 13 week, group: systemic.
Series [5] concerns rat. The note with it: Subchronic oral toxicity in rodents, fischer, Feed, dose end: 13 week, group: systemic.
The test system of series [6] is mouse. The note with it: Carcinogenicity, b6c3f1, Oral, Feed, dose end: 2 year, group: systemic.
Series [7] relates to rat. The note with it: Combined chronic toxicity/carcinogenicity, fischer, Oral, Feed, dose end: 2 year, group: systemic.
In series [8] the test system is rat. The note with it: Carcinogenicity; fischer; Oral; Feed; dose end: 2 year; group: systemic; systemic / in life observation / body weight / body weight.
The next series concerns dog. The note with it: Chronic toxicity; beagle; Oral; Capsule; dose end: 12 month; group: systemic; systemic / clinical chemistry / urea nitrogen / urea + systemic / in life observation / clinical signs / altered breathing rate + systemic….
For series [9], the system named is mouse. The note with it: Carcinogenicity, swiss albino, Oral, Feed, dose end: 18 month, group: systemic.
Series [10] concerns mouse. The note with it: Carcinogenicity, cd1, Oral, Feed, dose end: 18 month, group: systemic.
Series [11] relates to rat. The note with it: Prenatal developmental toxicity study; sprague dawley; Oral; Gavage/Intubation; dose end: 7 GD; group: maternal; reproductive / reproductive performance / estrous cycle / corpora lutea + reproductive / reproductive performance / postimplantation loss / ….
Series [12] relates to rat. The note with it: Sub-acute repeat dose toxicity, sprague dawley, Oral, Gavage/Intubation, dose end: 28 day, group: systemic.
For series [13], the system named is rat. The note with it: Developmental neurotoxicity study; sprague dawley; Injection; Subcutaneous; dose end: 345 PND; group: cannot be grouped; systemic / in life observation / body weight / offspring (pup) weight + systemic / in life observation / clinical signs / abnormal movements….
For series [14], the system named is rat. The note with it: Subchronic oral toxicity in rodents, other, Gavage/Intubation, dose end: 90 day, group: systemic.
Series [15] relates to rat. The note with it: Subchronic oral toxicity in rodents, fischer, Feed, dose end: 45 day, group: systemic.
The test system of series [16] is rat. The note with it: Carcinogenicity; fischer; Oral; Feed; dose end: 2 year; group: systemic; systemic / in life observation / body weight / body weight. This is another data set of the same source.
Series [17] deals with mouse. The note with it: Carcinogenicity; b6c3f1; Oral; Feed; dose end: 2 year; group: systemic; systemic / in life observation / body weight / body weight.
In series [18] the test system is mouse. The note with it: Subchronic oral toxicity in rodents, b6c3f1, Feed, dose end: 45 day, group: systemic, systemic / in life observation / mortality / mortality.
The mark [19] stands for this setting: systemic / pathology microscopic / kidney / hyperplasia + systemic / pathology microscopic / pancreas / hyperplasia.
[20] abbreviates: systemic / pathology microscopic / kidney / hyperplasia + systemic / pathology microscopic / pancreas / hyperplasia + systemic / pathology ….
Setting [21] is: systemic / clinical chemistry / creatinine / creatinine + systemic / urinalysis / specific gravity/osmolality / specific gravity/osmolality….
The mark [22] stands for this setting: systemic / in life observation / body weight / body weight gain + systemic / in life observation / body weight / body weight + systemic / ….
Setting [23] is: group: offspring, systemic / in life observation / body weight / offspring (pup) weight.
Setting [24] is: group: parental, systemic / in life observation / body weight / body weight + systemic / in life observation / food consumption / food consumption + systemic….
[25] abbreviates: group: parental, systemic / in life observation / body weight / body weight + systemic / organ weight / kidney / relative to body weight + systemic / in life….
[26] abbreviates: group: reproductive, reproductive / reproductive performance / reproductive performance other / NOS + reproductive / reproductive performance / estrous cycle / ….
[27] abbreviates: systemic / in life observation / body weight / body weight + systemic / in life observation / body weight / body weight gain.
The mark [28] stands for this setting: systemic / pathology microscopic / kidney / hyaline droplet.
Where [29] appears, read: systemic / in life observation / body weight / body weight + systemic / pathology microscopic / lung / hyperplasia.
The mark [30] stands for this setting: systemic / pathology microscopic / lung / adenoma/carcinoma combined.
[31] abbreviates: systemic / pathology microscopic / kidney / hyperplasia + systemic / pathology microscopic / kidney / pigmentation.
Where [32] appears, read: systemic / pathology microscopic / kidney / hyperplasia + systemic / pathology microscopic / kidney / pigmentation + systemic / pathology ….
Where [33] appears, read: systemic / organ weight / kidney / absolute + systemic / organ weight / kidney / relative to body weight + systemic / organ weight / liver….
[34] abbreviates: systemic / pathology microscopic / liver / adenoma + systemic / pathology microscopic / liver / adenoma/carcinoma combined + systemic / ….
Setting [35] is: systemic / pathology microscopic / liver / adenoma/carcinoma combined + systemic / hematology / erythrocyte (rbc) count differential / ….
The mark [36] stands for this setting: systemic / organ weight / heart / nos + systemic / organ weight / thymus / nos + systemic / pathology microscopic / ovary / follicle count.
The mark [37] stands for this setting: systemic / clinical chemistry / 5' nucleotidase / 5' nucleotidase + systemic / clinical chemistry / protein / protein + systemic / in life ….
Setting [38] is: systemic / clinical chemistry / 5' nucleotidase / 5' nucleotidase + systemic / organ weight / liver / relative to body weight + systemic / ….
[39] abbreviates: systemic / in life observation / body weight / body weight.
Setting [40] is: systemic / in life observation / body weight / body weight + systemic / in life observation / mortality / mortality.

Broadly, the LOAEL is the lowest tested level that showed an adverse finding. In general, NOAEL refers to the highest tested level that showed no adverse finding.

For the compound `OCC(CO)(CCBr)CCBr` [2,2-Bis(bromoethyl)-1,3-propanediol], in the series on rat [1] (setting [19]), the LOAEL came to 100 mg/kg/day and the NOAEL is less than 100 mg/kg/day. Further, in the series with rat [1] (setting [20]), the LEL was 100 mg/kg/day and the NEL was less than 100 mg/kg/day. In the series with rat [2] (setting [21]), the LEL was found to be 100 mg/kg/day and the NEL was less than 100 mg/kg/day. Besides, in the series on rat [2] (setting [22]), the LOAEL worked out at 400 mg/kg/day and the NOAEL was 200 mg/kg/day.
Consider `O=C(O)c1ccc([N+](=O)[O-])cc1` [4-Nitrobenzoic acid], for which the LEL in the series on mouse [3] (setting [23]) worked out at 500 mg/kg/day; with mouse [3] (setting [24]), 500 mg/kg/day; in the series with mouse [3] (group: reproductive, reproductive / reproductive performance / reproductive performance other / NOS + reproductive / reproductive performance / gestational …), 1100 mg/kg/day; in the series with mouse [4] (setting [27]), 170 mg/kg/day; in the series with rat [5] (setting [28]), 40 mg/kg/day; in the series with mouse [6] (setting [30]) it was 170 mg/kg/day. Besides, the LEL in the series on rat [7] (setting [31]) was 50 mg/kg/day. The LOAEL in the series with mouse [3] (setting [23]) was greater than 2400 mg/kg/day; with mouse [3] (setting [25]), greater than 2400 mg/kg/day; with mouse [3] (setting [26]), greater than 2400 mg/kg/day; in the series on mouse [4] (setting [27]), 670 mg/kg/day; with rat [5] (systemic / in life observation / body weight / body weight gain + systemic / organ weight / spleen / relative to body weight + systemic / …), 310 mg/kg/day; with mouse [6] (setting [29]), greater than 675 mg/kg/day. Also, the lowest observed adverse effect level (LOAEL) in the series with rat [7] (setting [32]) is 100 mg/kg/day. Besides, the NEL in the series on mouse [3] (setting [23]) is less than 500 mg/kg/day; in the series with mouse [3] (setting [24]) it was less than 500 mg/kg/day; in the series on mouse [3] (setting [26]), 500 mg/kg/day; in the series on mouse [4] (setting [27]), less than 170 mg/kg/day; with rat [5] (setting [28]), less than 40 mg/kg/day; in the series on mouse [6] (setting [30]) it was less than 170 mg/kg/day. In addition, the NEL with rat [7] (setting [31]) is less than 50 mg/kg/day. The NOAEL in the series on mouse [3] (setting [23]) was no less than 2400 mg/kg/day; with mouse [3] (setting [25]), no less than 2400 mg/kg/day; with mouse [3] (setting [26]), no less than 2400 mg/kg/day; in the series on mouse [4] (systemic / in life observation / body weight / body weight + systemic / in life observation / body weight / body weight gain + systemic / …), 330 mg/kg/day; in the series with rat [5] (systemic / pathology microscopic / kidney / hyaline droplet + systemic / in life observation / body weight / body weight gain + systemic / …), 160 mg/kg/day; in the series on mouse [6] (setting [29]), no less than 675 mg/kg/day. Also, the no observed adverse effect level (NOAEL) in the series on rat [7] (setting [32]) is 50 mg/kg/day.
`Cc1ccc2ncccc2c1` [6-Methylquinoline]: in the series with rat [8], the LEL is 25 mg/kg/day, the lowest-observed-adverse-effect level (LOAEL) was greater than 25 mg/kg/day, the NEL was less than 25 mg/kg/day and the no observed adverse effect level (NOAEL) is no less than 25 mg/kg/day.
With `N#Cc1cc(Br)c(O)c(Br)c1` [Bromoxynil], the LEL was found to be 1.5 mg/kg/day in the series on dog, 4 mg/kg/day with mouse [9] (systemic / pathology microscopic / liver / carcinoma + systemic / pathology microscopic / liver / hyperplasia) and 3.1 mg/kg/day in the series on mouse [10] (setting [35]). Also, the LOAEL in the series on dog was 1.5 mg/kg/day; in the series on mouse [9] (setting [33]), greater than 13.3 mg/kg/day; in the series on mouse [10] (setting [34]), 12 mg/kg/day. Besides, the NEL was 0.3 mg/kg/day with dog, 1.33 mg/kg/day in the series on mouse [9] (systemic / pathology microscopic / liver / adenoma + systemic / pathology microscopic / liver / carcinoma + systemic / organ weight / liver…) and less than 3.1 mg/kg/day with mouse [10] (setting [35]). In addition, the results for the NOAEL in the series on dog, in the series with mouse [9] (setting [33]) and in the series with mouse [10] (setting [34]) were 0.3 mg/kg/day, no less than 13.3 mg/kg/day and 3.1 mg/kg/day, respectively.
As for `CS(=O)(=O)OCCCCOS(C)(=O)=O` [Busulfan], in the series on rat [11], the LEL is 1.5 mg/kg/day, the lowest observed adverse effect level (LOAEL) is greater than 1.5 mg/kg/day, the NEL was 0.5 mg/kg/day and the no observed adverse effect level (NOAEL) is no less than 1.5 mg/kg/day. In addition, in the series on rat [12] (setting [36]), the LOAEL was greater than 1.5 mg/kg/day, the NEL stood at 0.1 mg/kg/day and the NOAEL is no less than 1.5 mg/kg/day. For the same compound, the LEL in the series with rat [12] (systemic / pathology microscopic / ovary / follicle count) is 0.5 mg/kg/day.
Consider `C[C@@H]1C[C@H]2[C@@H]3CCC4=CC(=O)C=C[C@]4(C)[C@@]3(F)[C@@H](O)C[C@]2(C)[C@@]1(O)C(=O)CO` [Dexamethasone], for which, in the series on rat [13], the LEL was determined as 3 mg/kg/day, the LOAEL was greater than 3 mg/kg/day, the NEL is less than 3 mg/kg/day and the no observed adverse effect level (NOAEL) was no less than 3 mg/kg/day.
As for `N#CC(Cl)Cl` [Dichloroacetonitrile], in the series with rat [14] (setting [37]), the LOAEL was greater than 65 mg/kg/day and the NOAEL is no less than 65 mg/kg/day. Further, in the series on rat [14] (setting [38]), the LEL amounted to 8 mg/kg/day and the NEL was less than 8 mg/kg/day.
In the case of `Cc1ccc(S(=O)(=O)NC(=O)NN2CCCCCC2)cc1` [Tolazamide], the LEL stood at 1000 mg/kg/day in the series on rat [15] (setting [39]), 250 mg/kg/day in the series with rat [16], 750 mg/kg/day in the series with mouse [17] and 3750 mg/kg/day in the series on mouse [18]. Moreover, the lowest-observed-adverse-effect level (LOAEL) with rat [15] (setting [39]) is 1000 mg/kg/day; in the series with rat [16], greater than 500 mg/kg/day; in the series with mouse [17], 750 mg/kg/day; in the series on mouse [18], greater than 7500 mg/kg/day. Moreover, the NEL in the series on rat [15] (setting [40]) was 500 mg/kg/day; with rat [16], less than 250 mg/kg/day; with mouse [17] it was less than 750 mg/kg/day; in the series on mouse [18], 1800 mg/kg/day. The NOAEL in the series with rat [15] (setting [40]) was 500 mg/kg/day; in the series with rat [16], no less than 500 mg/kg/day; in the series on mouse [17], less than 750 mg/kg/day; in the series on mouse [18], no less than 7500 mg/kg/day.
